Measured values taken from US20200247815A1, “PYRAZOLYL-CONTAINING TRICYCLIC DERIVATIVE, PREPARATION METHOD THEREFOR AND USE THEREOF” (Jiangsu Hansoh Pharmaceutical Group Co., Ltd., priority 2017, published 2020).

What was measured:
ERK-1 kinase = biological target: T1, ERK-1 kinase (Homo sapiens, UniProt P27361); test: Inhibition of ERK-1 kinase activity (LANCE Ultra TR-FRET); format: biochemical; conditions: ERK1 enzyme 0.4 nM, ATP 38.15 μM
T1 construct: purchased Invitrogen PV3311
How it was run: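 Reactions contained 0.4 nM ERK1, 0.5 μM Ulight-MBP peptide and 38.15 μM ATP in pH 7.4 Hepes/MgCl2 buffer with 4% DMSO and ran 60 minutes at room temperature. Detection used Eu-anti-p-MBP with a 665/615 nm TR-FRET ratio, normalised to DMSO and no-enzyme controls. Final concentrations were 100 nM to 0.005 nM, and IC50 came from a 4-parameter fit.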

[1] = Pharmacokinetics assay in mice (oral, plasma); format: in vivo, Balb/c Mouse; conditions: for Exposure in mouse plasma: dose of 50 mg/kg, oral; for Cmax / MRT / Tmax / half-life / AUC(0-t): mouse, male Balb/c mice, PO 50 mg/kg, plasma; for AUC(0-t): read-out: AUC0-24
Description: Balb/c Mouse was used as the test animal. The pharmacokinetic behavior of compounds of Example 1, 2 and 7 administrated orally was studied in mice (plasma).
170 g of PEG400 and 20 g of Solutol HS-15 were added to a 250 mL glass flask, and then 10 mL of NMP was added. The solution was mixed well by ultrasound for 10 minutes to obtain a clear solution.
11.2 mg of the compound of Example 1, 10.8 mg of the compound of Example 2 and 9.8 mg of the compound of Example 7 were weighted to a 4 mL glass flasks respectively, […], 2.160 mL and […] of the above solution were treated by ultrasound for 10 minutes to obtain a colorless clear solution with a concentration of 5 mg/mL.
After fasting overnight, the male Balb/c mice were administrated with the compounds (PO), the dose was 50 mg/kg, and the administration volume was 10 mL/kg.
Blood was taken before administration and at 0.25, 0.5, 1, 2, 4, 6, 8 and 24 hours after administration. The blood samples were stored in EDTA-2K tubes, and centrifuged for 6 minutes to separate the blood plasma. The plasma samples were stored at −80° C.

ERK-2 kinase = biological target: T2, ERK-2 kinase (Homo sapiens, UniProt P28482); test: Inhibition of ERK-2 kinase activity (LANCE Ultra TR-FRET); format: biochemical; conditions: ERK-2 enzyme 0.08 nM, ATP 38.15 μM
T2 construct: purchased Invitrogen PV3313
How it was run: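 Recombinant ERK-2 (0.08 nM) with ULight-MBP peptide (0.5 μM) and ATP (38.15 μM) in Hepes pH 7.4 buffer, compound 100 nM to 0.005 nM final, 4% DMSO, 60 min at room temperature. Eu-anti-p-MBP TR-FRET (665/615 nm) read after EDTA stop; % inhibition versus DMSO and no-enzyme controls fitted 4-parameter for Abs_IC50.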

[2] = Solubility (statement, no method); format: physicochemical

T1 sequence (P27361 whole entry): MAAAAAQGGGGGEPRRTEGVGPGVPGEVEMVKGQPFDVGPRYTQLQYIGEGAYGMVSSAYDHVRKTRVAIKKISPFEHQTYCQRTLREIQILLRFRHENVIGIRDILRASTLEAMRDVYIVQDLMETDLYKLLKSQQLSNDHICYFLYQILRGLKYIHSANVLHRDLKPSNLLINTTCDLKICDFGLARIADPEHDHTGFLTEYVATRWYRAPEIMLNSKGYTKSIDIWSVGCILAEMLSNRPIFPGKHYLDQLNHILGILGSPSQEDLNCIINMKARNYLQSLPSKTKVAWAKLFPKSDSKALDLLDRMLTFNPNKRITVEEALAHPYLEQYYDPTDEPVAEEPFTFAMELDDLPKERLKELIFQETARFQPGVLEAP
T2 sequence (P28482 whole entry): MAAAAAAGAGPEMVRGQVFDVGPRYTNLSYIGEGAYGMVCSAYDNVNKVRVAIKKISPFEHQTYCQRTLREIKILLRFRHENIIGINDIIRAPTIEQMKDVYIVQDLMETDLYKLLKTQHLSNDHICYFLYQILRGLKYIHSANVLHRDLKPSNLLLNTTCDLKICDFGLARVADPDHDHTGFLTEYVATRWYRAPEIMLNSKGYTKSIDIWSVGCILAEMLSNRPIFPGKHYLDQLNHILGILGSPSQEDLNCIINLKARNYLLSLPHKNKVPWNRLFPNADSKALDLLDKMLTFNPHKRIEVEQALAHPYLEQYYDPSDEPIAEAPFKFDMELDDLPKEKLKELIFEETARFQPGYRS

Row | Compound | IC50 (ERK-1 kinase) | Exposure in mouse plasma [1] | Cmax [1] | MRT [1] | Tmax [1] | half-life [1] | AUC(0-t) [1] | IC50 (ERK-2 kinase) | Solubility compared with ERK compounds of the prior art [2]
1 | C[C@@H](NC(=O)c1cc2cc3c(-c4ccncc4)n[nH]c3cc2[nH]1)c1ccccc1 [Example 1, (R)—N-(1-phenylethyl)-3-(pyridin-4-yl)-1,7-dihydropyrrolo[3,2-f]indazole-6-carboxamide] | 0.29 nM | good exposure | 1310 ng/mL | 8.99 h | 0.5 h | 6.59 h | 14700 ng·h/mL | 0.17 nM | higher solubility
2 | C[C@@H](NC(=O)c1nc2cc3c(-c4ccncc4)n[nH]c3cc2[nH]1)c1ccccc1 [Example 2, (R)—N-(1-phenylethyl)-3-(pyridin-4-yl)-1,7-dihydroimidazo[4,5-f]indazole-6-carboxamide] | 0.42 nM | good exposure | 15900 ng/mL | 2.44 h | 2 h | 0.82 h | 50400 ng·h/mL | 0.19 nM | higher solubility
